# Data reported in patent US20240067634A1, “INHIBITORS OF NEF DOWNMODULATION” (priority 2020, published 2024).
# Like-named read-outs stand apart in the source and are kept apart here.
# Assays:
# C57BL/6J mice = details: cited from earlier work
# HIV-1 Nef = target: T1, HIV-1 Nef (Human immunodeficiency virus 1, UniProt P03406); assay: Anti-Nef activity: reversal of Nef-dependent MHC-I HLA-A2 downmodulation, flow cytometry; assay type: cell-based
# T1 sequence (P03406 2-206): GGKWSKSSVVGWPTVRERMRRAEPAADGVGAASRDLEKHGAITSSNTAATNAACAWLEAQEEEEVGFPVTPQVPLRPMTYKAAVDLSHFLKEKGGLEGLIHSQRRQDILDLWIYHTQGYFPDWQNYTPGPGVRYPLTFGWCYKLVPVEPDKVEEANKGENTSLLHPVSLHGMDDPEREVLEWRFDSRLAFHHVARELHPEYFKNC
# Procedure: Determination of anti-Nef activity: To identify molecules with enhanced Nef inhibition, decreased toxicity and decreased inhibition of lysosomes, the analogs of the disclosure are screened initially for Nef inhibitory activity using a high throughput assay in HIV-1 infected CEM-A2 cells. These cells are infected with an HIV-1 reporter construct for 48 hours and then exposed to potential inhibitors for 24 hours. Cells are harvested and stained for flow cytometric analysis of HLA-A2 surface expression, and the fold downmodulation of HLA-A2 are calculated by comparing expression on uninfected cells to that on infected cells.
# PBMCs is isolated from leukopaks, CD8-depleted, and stimulated with PHA.
# To assess their toxicity, an MTT assay was used, which measures […] dehydrogenase activity. Metabolically active cells reduce MTT to MTT-formazan leading to a color change. For this analysis, PHA-activated primary human PBMCs were exposed to a range of concentrations of each drug continuously for 72 hours of culture.
# [1] = target: V-ATPase-dependent lysosomal acidification; assay: cells; assay type: cell-based, human; details: 24 hr Lysotracker IC50; 1000 nM set as activity threshold (FIG. 11-14); read-out: Lyso IC50
# Text: Determine effect on V-ATPase activity: Plecomacrolides are known inhibitors of V-ATPase that neutralize normally acidified lysosomes. […] Thus, analogs of the disclosure are further characterized by measuring their effects on lysosome acidification.
# LysoTracker® is a fluorophore linked to a weak base that is partially protonated at neutral pH. This form of the probe is capable of freely permeating cell membranes of live cells. In acidic compartments, protonation creates a form that was impermeable causing the probe to accumulate inside the lysosome.
# C57BL/6J and BALB/c mice = details: five consecutive doses at 12 mg/kg; cited from earlier work
# [2] = test system: Nef-dependent degradation of MHC-I and CD4; assay: Western blot of Nef-dependent protein degradation in sorted HIV-1 infected primary T cells; assay type: cell-based, human
# [3] = test system: HIV-1 WT infected primary T cells; assay: In vitro flow cytometric anti-HIV-1 CTL killing assay; assay type: cell-based, human; details: low dose CMA (0.5 nM in FIG. 8); anti-HIV-1 CTL clone
# Procedure: Numbers are mean percent infected cell survival after a 4 hour incubation with a 2:1 effector:target (E:T) ratio of an anti-HIV-1 CTL clone recognizing Gag SL9 epitope (n=2).
# Mean +/− standard deviation is shown n=2. E:T, effector:target.
# Therefore, the effect of promising Nef inhibitor analogs is generated as disclosed herein on anti-HIV-1 CTL killing using the in vitro flow cytometric CTL killing assay developed previously (FIGS. 1 and 8 ? (Collins et al., 1998). These studies utilize CTL clones reactive against various HIV-1 epitopes known to be affected by Nef (Collins et al., 1998).
# [4] = intraperitoneal daily over three days, 10 mg/kg
# [5] = HIV-1 infected primary T lymphocytes
Compound,restoration of MHC-I HLA-A2 surface expression (HIV-1 Nef; [5]),IC50 [1] [nM],overall body weight (C57BL/6J and BALB/c mice),pancreatic islet cell size (C57BL/6J and BALB/c mice),random blood glucose (C57BL/6J and BALB/c mice),also measured
"CO/C1=C\C(C)=C\[C@@H](C)[C@@H](O)[C@@H](C)C/C(C)=C/C=C/[C@H](OC)[C@@H]([C@@H](C)[C@@H](O)[C@H](C)[C@@]2(O)C[C@@H](O)[C@H](C)[C@@H](C(C)C)O2)OC1=O [BafA1, Bafilomycin A1]",restore MHC-I HLA-A2,45.2,not affected,decrease in pancreatic islet cell size,did not cause significant variations,"weight loss (C57BL/6J mice; 25 mg/kg, within 12 days of injection): 30%; body weight (C57BL/6J mice; [4]): maintained a normal weight; liver toxicity (C57BL/6J mice; [4]): no evidence of liver toxicity; liver enzymes (C57BL/6J mice; intraperitoneal, 25 mg/kg): increases in liver enzymes indicative of liver damage"
"C/C=C/C1OC(O)(C(C)C(O)C(C)C2OC(=O)/C(OC)=C/C(C)=C/C(C)C(O)C(CC)C(O)C(C)C/C(C)=C/C=C/C2OC)CC(OC(=O)/C=C/C(=O)NC2=C(O)CCC2=O)C1C (centres unmarked) [Virustomycin, reference compound]",,3.68,,,,IC50 (HIV-1 Nef): 0.688 nM
"C/C=C/[C@H]1O[C@@](O)([C@@H](C)[C@H](O)[C@H](C)[C@H]2OC(=O)/C(OC)=C/C(C)=C/[C@@H](C)[C@@H](O)[C@@H](CC)[C@@H](O)[C@H](C)C/C(C)=C/C=C/[C@@H]2OC)C[C@@H](O[C@H]2C[C@@H](O)[C@H](OC(N)=O)[C@@H](C)O2)[C@@H]1C [CMA, Concanamycin A]",restore MHC-I HLA-A2,0.977,not affected,decrease in pancreatic islet cell size,did not cause significant variations,"concentration with activity in restoring MHC-I HLA-A2 (HIV-1 Nef; HIV-1 infected primary T lymphocytes, FIG. 2): ~100 pM; Nef-dependent degradation of MHC-I ([2]; antibody HC-10, FIG. 9): selectively reverses; Nef-mediated CD4 degradation ([2]; concentrations sufficient to reverse Nef-mediated degradation of MHC-I, FIG. 9): did not significantly alter; CTL killing of HIV-1 WT infected primary T cells [3]: increases CTL killing"
"C/C=C/[C@H]1O[C@@H]([C@@H](C)[C@H](O)[C@H](C)[C@H]2OC(=O)/C(OC)=C/C(C)=C/[C@@H](C)[C@@H](O)[C@@H](CC)[C@@H](O)[C@H](C)C/C(C)=C/C=C/[C@@H]2OC)C[C@@H](O)[C@@H]1C [21-Deoxy CMF, 21-deoxy concanamycin F]",,23.3,,,,"IC50 (HIV-1 Nef; 24 hr Nef activity IC50, independent donors, 1000 nM set as activity threshold (FIG. 11-14)): 4.29 nM"
"C#CCCC(=O)O[C@H]1C[C@@H](O[C@@H]2C[C@](O)([C@@H](C)[C@H](O)[C@H](C)[C@H]3OC(=O)/C(OC)=C/C(C)=C/[C@@H](C)[C@@H](O)[C@@H](CC)[C@@H](O)[C@H](C)C/C(C)=C/C=C/[C@@H]3OC)O[C@H](/C=C/C)[C@H]2C)O[C@@H](C)[C@@H]1OC(N)=O [23-Alkyne CMC, 3′-pent-4-ynoate Concanamycins A-C]",,5.72,,,,
